Reference: patent publication US20080194574A1, “Pyrazine Derivatives As Effective Compounds Against Infectious Diseases” (AXXIMA PHARMACEUTICALS AG, priority 2003, published 2008)

Target: CDK9 (Homo sapiens, UniProt P50750)
Test: General kinase assay protocol (33P-ATP, MBP substrate, filter plate): CDK9
Assay type: biochemical
Conditions: inhibition at concentration 10 μM; read-out: Inhibitory effect on Target CDK9
Method: (§1) General Assay Protocol for all Kinases
(§2) (For UL97 a special UL97 kinase assay was used as described below.)
(§3) Final Assay Concentrations:
(§4) • 1) Add 8 μl 50 μM MBP in Reaction Buffer to each well of Assay Plate • 2) Add 10 μl 500 mM EDTA in H2O to C− wells • 3) Add 8 μl 62.5 μCi/ml Adenosine 5′-[γ-^33P]triphosphate+5 μM ATP in Reaction Buffer to each well • 4) Add 8 μl 5 fold concentrated inhibitor in 5% DMSO in Reaction Buffer to each well except to C− and C+ wells • 5) Add 8 μl 5% DMSO in Reaction Buffer to C− and C+wells • 6) Add 8 μl 5 fold concentrated kinase in Reaction Buffer to each well • 7) Incubate 1 hr at room temperature • 8) Add 10 μl 50 mM EDTA in H2O to each well except to C− wells • 9) Prepare MAPH plates by adding 200 μl 0.75% H3PO4 to each well • 10) Exhaust 0.75% H3PO4 using Millipore vacuum station • 11) Add 60 μl 0.75% H3PO4 to each well of MAPH Filter Plate • 12) Transfer 30 μl sample per well from Assay Plate to corresponding well of MAPH Filter Plate • 13) Incubate 30 min at room temperature • 14) Wash each well of MAPH Filter Plates 3× with 200 μl 0.75% H3PO4 using Millipore vacuum station • 15) Add 20 μl Szintilation Liquid to each well of MAPH Filter Plate • 16) Seal MAPH Filter Plate • 17) Store MAPH Filter Plate 30 min in darkness • 18) Quantify radioactivity

Chain of CDK9 (P50750 whole entry, species assumed): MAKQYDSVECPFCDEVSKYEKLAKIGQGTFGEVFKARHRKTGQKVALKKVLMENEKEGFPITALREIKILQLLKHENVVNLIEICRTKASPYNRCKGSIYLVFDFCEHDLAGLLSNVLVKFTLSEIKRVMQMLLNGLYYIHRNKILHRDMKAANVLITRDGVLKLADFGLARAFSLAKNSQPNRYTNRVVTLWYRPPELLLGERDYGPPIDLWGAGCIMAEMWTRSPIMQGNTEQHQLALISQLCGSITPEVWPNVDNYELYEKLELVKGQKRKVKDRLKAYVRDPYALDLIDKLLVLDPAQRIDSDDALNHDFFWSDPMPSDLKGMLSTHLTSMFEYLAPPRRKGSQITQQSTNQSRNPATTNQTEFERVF
Chain of CDK9 (O60563 whole entry partner, species assumed): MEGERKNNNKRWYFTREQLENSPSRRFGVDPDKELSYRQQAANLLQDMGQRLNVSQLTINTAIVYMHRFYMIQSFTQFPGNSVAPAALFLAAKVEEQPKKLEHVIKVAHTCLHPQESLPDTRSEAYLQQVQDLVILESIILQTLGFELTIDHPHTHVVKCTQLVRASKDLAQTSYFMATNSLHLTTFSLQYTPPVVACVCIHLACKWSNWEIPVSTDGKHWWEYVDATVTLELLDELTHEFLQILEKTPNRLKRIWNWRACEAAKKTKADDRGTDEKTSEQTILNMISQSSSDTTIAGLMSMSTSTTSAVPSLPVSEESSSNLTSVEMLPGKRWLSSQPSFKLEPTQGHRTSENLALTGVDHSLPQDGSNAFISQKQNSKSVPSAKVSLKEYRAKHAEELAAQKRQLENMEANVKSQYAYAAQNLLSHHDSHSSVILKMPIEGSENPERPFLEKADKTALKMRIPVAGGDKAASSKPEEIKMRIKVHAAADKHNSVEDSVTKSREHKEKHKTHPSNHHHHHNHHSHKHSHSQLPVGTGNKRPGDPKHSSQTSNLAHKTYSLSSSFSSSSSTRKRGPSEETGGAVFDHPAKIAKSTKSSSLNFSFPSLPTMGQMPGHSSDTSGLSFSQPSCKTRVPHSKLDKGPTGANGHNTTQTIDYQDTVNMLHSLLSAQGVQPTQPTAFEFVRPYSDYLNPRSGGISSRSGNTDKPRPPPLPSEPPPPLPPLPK

Compound | inhibition at 10 µM [%]
Oc1ccc(-c2cncc(Nc3ccc(F)c(Cl)c3)n2)cc1 [Comp. 11] | > 75
CN(C)CCNC(=O)c1cccc(-c2cncc(Nc3ccc(Cl)cc3)n2)c1 [Comp. 381] | > 50

The next lines start with the values.

inhibition at 10 µM [%] | Compound
> 50 | CC(=O)Nc1ccc(-c2cncc(Nc3ccc(Cl)cc3)n2)cc1 [compound 397]
> 50 | CC(=O)Nc1cccc(-c2cncc(Nc3ccc4c(c3)OC(F)(F)C(F)(F)O4)n2)c1 [compound 403]

Target: RICK (Homo sapiens, UniProt O43353)
Test: General kinase assay protocol (33P-ATP, MBP substrate, filter plate): RICK
Assay type: biochemical
Conditions: inhibition at concentration 10 μM; read-out: Inhibitory effect on Target RICK
Description: as §1, §2

Chain of RICK (O43353 whole entry, species assumed): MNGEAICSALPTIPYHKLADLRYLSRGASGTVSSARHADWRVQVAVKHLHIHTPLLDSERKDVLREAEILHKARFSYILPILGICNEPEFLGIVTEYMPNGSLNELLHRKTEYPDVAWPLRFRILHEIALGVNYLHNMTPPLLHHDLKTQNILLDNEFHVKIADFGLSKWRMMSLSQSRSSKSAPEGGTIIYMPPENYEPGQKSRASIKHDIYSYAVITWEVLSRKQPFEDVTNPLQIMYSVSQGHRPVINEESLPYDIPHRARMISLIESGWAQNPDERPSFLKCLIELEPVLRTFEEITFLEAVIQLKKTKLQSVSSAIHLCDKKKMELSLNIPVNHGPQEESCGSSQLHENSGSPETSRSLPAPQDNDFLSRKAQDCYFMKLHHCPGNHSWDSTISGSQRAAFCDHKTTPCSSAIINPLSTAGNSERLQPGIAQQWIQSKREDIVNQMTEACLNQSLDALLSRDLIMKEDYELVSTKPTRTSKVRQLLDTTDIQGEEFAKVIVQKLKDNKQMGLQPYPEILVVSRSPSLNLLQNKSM

Compound | inhibition at 10 µM [%]
COc1cc(Nc2cncc(-c3cccc(F)c3)n2)cc(OC)c1OC [Comp. 7, [6-(3-Fluoro-phenyl)-pyrazin-2-yl]-(3,4,5-trimethoxy-phenyl)-amine] | > 50
Oc1ccc(-c2cncc(Nc3ccc(F)c(Cl)c3)n2)cc1 [Comp. 11] | > 50
CN(C)CCNC(=O)c1cccc(-c2cncc(Nc3ccc(Cl)cc3)n2)c1 [Comp. 381] | > 50
Oc1ccc(-c2cncc(Nc3cccc(C(F)(F)F)c3)n2)cc1 [compound 29, 4-[6-(3-Trifluoromethyl-phenylamino)-pyrazin-2-yl]-phenol] | > 50
Nc1cccc(-c2cncc(Nc3ccc(Cl)cc3)n2)c1 [compound 380] | > 50
COc1cc(-c2cncc(Nc3ccc(F)c(Cl)c3)n2)cc(OC)c1OC [compound 382] | > 50
Oc1ccc(-c2cncc(Nc3ccccc3)n2)cc1 [compound 386] | > 75

Other lines, results leading:

inhibition at 10 µM [%] | Compound
> 50 | COc1ccc(-c2cncc(Nc3cccc(C#N)c3)n2)cc1 [compound 388]
> 50 | CN(C)c1cccc(-c2cncc(Nc3cccc(C#N)c3)n2)c1 [compound 391]
> 75 | COc1cc(Nc2cncc(-c3ccc(N)cc3)n2)cc(OC)c1OC [compound 398]
> 75 | COc1cc(Nc2cncc(-c3ccc4ccccc4c3)n2)cc(OC)c1OC [compound 402]
> 50 | Cc1ccc(Nc2cncc(-c3ccc(F)cc3F)n2)cc1NS(C)(=O)=O [compound 410]
> 50 | Oc1cccc(-c2cncc(Nc3ccc(F)c(Cl)c3)n2)c1 [compound 417]
> 50 | OCc1ccccc1-c1cncc(Nc2ccc(Cl)cc2)n1 [compound 420]
> 50 | COc1cc(Nc2cncc(-c3cccc(O)c3)n2)cc(OC)c1OC [compound 423]
> 50 | Nc1ncc(-c2ccc(O)cc2)nc1Nc1ccc2[nH]ccc2c1 [compound 428]
> 75 | COc1cccc(-c2cnc(N)c(Nc3ccc4[nH]ccc4c3)n2)c1 [compound 432]

Target: T1, viral kinase pUL-97 (Human cytomegalovirus, UniProt P16788)
T1 construct: The pUL-97 gene was cloned into a baculovirus vector; GST (glutathione S-transferase) (N); made in house; host or cells: Sf9 insect cells, baculovirus
Test: UL97 kinase assay on Immobilon plate
Assay type: biochemical
Conditions: not given
Summary of the method: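 Compound was titrated into a radiometric reaction of Sf9-expressed GST-UL97 kinase, incubated 1 h at 30 °C in Tris-HCl pH 7.5/MnCl2/DTT buffer before EDTA stop. MBP substrate and ATP (3 μM in the added assay buffer) were supplied with γ-[33P]ATP. Labelled product bound to Immobilon filter was washed and counted by scintillation.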

T1 sequence (P16788 whole entry): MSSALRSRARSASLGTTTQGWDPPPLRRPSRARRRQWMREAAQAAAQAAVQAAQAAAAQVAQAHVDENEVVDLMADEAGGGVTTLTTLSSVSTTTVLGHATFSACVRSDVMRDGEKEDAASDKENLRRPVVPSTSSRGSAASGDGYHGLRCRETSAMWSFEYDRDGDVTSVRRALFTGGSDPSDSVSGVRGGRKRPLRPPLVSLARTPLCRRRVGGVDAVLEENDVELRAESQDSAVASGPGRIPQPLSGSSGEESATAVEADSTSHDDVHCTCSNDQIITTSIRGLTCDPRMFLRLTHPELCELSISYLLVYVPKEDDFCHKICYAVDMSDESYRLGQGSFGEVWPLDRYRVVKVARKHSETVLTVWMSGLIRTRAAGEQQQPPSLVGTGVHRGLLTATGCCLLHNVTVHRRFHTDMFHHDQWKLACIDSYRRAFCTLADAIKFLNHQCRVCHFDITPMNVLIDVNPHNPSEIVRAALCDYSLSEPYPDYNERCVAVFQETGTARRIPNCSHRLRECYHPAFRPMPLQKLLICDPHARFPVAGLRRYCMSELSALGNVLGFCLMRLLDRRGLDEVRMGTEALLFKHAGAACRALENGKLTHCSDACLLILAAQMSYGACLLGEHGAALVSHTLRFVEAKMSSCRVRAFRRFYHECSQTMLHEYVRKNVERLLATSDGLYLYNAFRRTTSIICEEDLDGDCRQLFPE

Compound | IC50 [µM]
CN(C)CCNC(=O)c1cccc(-c2cncc(Nc3ccc(C#N)c(Cl)c3)n2)c1 [Comp. 22, 3-[6-(3-Chloro-4-cyano-phenylamino)-pyrazin-2-yl]-N-(2-dimethylamino-ethyl)-benzamide] | < 1

Same assay, conditions: inhibition of UL 97 kinase activity; class by IC50 / % inhibition at 10 μM or 100 μM; read-out: Activity Class [A, B, C]

IC50 [µM] | Compound
1 to 10 | CSc1ccc(-c2cncc(N3CCC(c4ccccc4)CC3)n2)cc1 [compound 361, 2-(4-Methylsulfanyl-phenyl)-6-(4-phenyl-piperidin-1-yl)-pyrazine]
1 to 10 | CC(=O)c1ccc(-c2cncc(N3CCC(c4ccccc4)CC3)n2)cc1 [compound 362]
1 to 10 | COc1ccc(N2CCN(c3cncc(-c4ccc(F)cc4)n3)CC2)cc1 [compound 363, 6′-(4-Fluoro-phenyl)-4-(4-methoxy-phenyl)-3,4,5,6-tetrahydro-2H-[1,2′]bipyrazinyl]
1 to 10 | COc1cccc(N2CCN(c3cncc(-c4ccc(C(N)=O)cc4)n3)CC2)c1 [compound 364, 4-[4-(3-Methoxy-phenyl)-3,4,5,6-tetrahydro-2H-[1,2′]bipyrazinyl-6′-yl]-benzamide]
10 to 100 | COc1cccc(N2CCN(c3cncc(-c4ccccc4)n3)CC2)c1 [compound 365, 4-(3-Methoxy-phenyl)-6′-phenyl-3,4,5,6-tetrahydro-2H-[1,2′]bipyrazinyl]
1 to 10 | COc1cccc(-c2cncc(N3CCN(c4cccc(OC)c4)CC3)n2)c1 [compound 366, 4,6′-Bis-(3-methoxy-phenyl)-3,4,5,6-tetrahydro-2H-[1,2′]bipyrazinyl]
1 to 10 | COc1cccc(N2CCN(c3cncc(-c4ccc(F)cc4)n3)CC2)c1 [compound 367, 6′-(4-Fluoro-phenyl)-4-(3-methoxy-phenyl)-3,4,5,6-tetrahydro-2H-[1,2′]bipyrazinyl]
1 to 10 | COc1cccc(N2CCN(c3cncc(-c4cccc(C(C)=O)c4)n3)CC2)c1 [compound 368, 1-{3-[4-(3-Methoxy-phenyl)-3,4,5,6-tetrahydro-2H-[1,2′]bipyrazinyl-6′-yl]-phenyl}-ethanone]
1 to 10 | COc1cccc(N2CCN(c3cncc(-c4ccc(SC)cc4)n3)CC2)c1 [compound 369, 4-(3-Methoxy-phenyl)-6′-(4-methylsulfanyl-phenyl)-3,4,5,6-tetrahydro-2H-[1,2′]bipyrazinyl]
10 to 100 | Fc1ccc(-c2cncc(N3CCN(c4ccc(Cl)c(Cl)c4)CC3)n2)cc1 [compound 370]
10 to 100 | COc1ccc(-c2cncc(N3CCN(c4ccc(Cl)c(Cl)c4)CC3)n2)cc1OC [compound 371, 4-(3,4-Dichloro-phenyl)-6′-(3,4-dimethoxy-phenyl)-3,4,5,6-tetrahydro-2H-[1,2′]bipyrazinyl]
10 to 100 | CSc1ccc(-c2cncc(N3CCN(c4ccc(Cl)c(Cl)c4)CC3)n2)cc1 [compound 372, 4-(3,4-Dichloro-phenyl)-6′-(4-methylsulfanyl-phenyl)-3,4,5,6-tetrahydro-2H-[1,2′]bipyrazinyl]
10 to 100 | Cc1nc(C)c(N2CCN(c3ccncc3)CC2)nc1-c1cc2ccccc2s1 [compound 373, 6′-Benzo[b]thiophen-2-yl-3′,5′-dimethyl-4-pyridin-4-yl-3,4,5,6-tetrahydro-2H-[1,2′]bipyrazinyl]

Same assay, conditions: inhibition of UL 97 kinase activity; class by IC50 / % inhibition at 10 or 100 μM; read-out: Activity Class [A, B, C]

IC50 [µM] | Compound
1 to 10 | COc1cc(Nc2cncc(-c3cccc(F)c3)n2)cc(OC)c1OC [Comp. 7, [6-(3-Fluoro-phenyl)-pyrazin-2-yl]-(3,4,5-trimethoxy-phenyl)-amine]
< 1 | Oc1ccc(-c2cncc(Nc3ccc(F)c(Cl)c3)n2)cc1 [Comp. 11]
< 1 | Oc1ccc(-c2cncc(Nc3cccc(C(F)(F)F)c3)n2)cc1 [compound 29, 4-[6-(3-Trifluoromethyl-phenylamino)-pyrazin-2-yl]-phenol]

Tested on: HCMV strain AD169
Test: HCMV replication assay (reporter gene) in human foreskin fibroblasts
Assay type: cell-based, human cytomegalovirus
Conditions: Human betaherpesvirus 5; HCMV strain AD169 in HFF cells; read-out: IC50 in inhibiting replication of HCMV
Method: To examine the effect of the pyrazine derivatives on HCMV replication, HCMV infections were performed in a cellular system.
Human foreskin fibroblasts (HFFs) were grown to subconfluency in 12 well plates and infected with 0.25 tissue culture infectious doses of HCMV AD-169 carrying a reporter gene (HCMV based antiviral assay). Pyrazine derivatives (stocks in DMSO (Dimethylsulfoxide)) were diluted in culture medium to the concentrations indicated and added to the cells immediately after virus adsorption. The success of infection (reporter gene expressing cells) and the lack of cytotoxicity of the compound (confluent cell layer) was monitored by microscopy. After seven days, cell layers were harvested, lysed and subjected to the automated fluorometry measurement of reporter gene activity. Each panel refers to a determination in quadruplicate (infection in duplicate, lysate preparation and measurement in duplicate).

Compound | IC50 [µM]
Nc1nc(O)c2ncn(COC(CO)CO)c2n1 [ganciclovir] | 3 to 4

Target: SRPK1 (Homo sapiens, UniProt Q96SB4)
Test: General kinase assay protocol (33P-ATP, MBP substrate, filter plate): SRPK1
Assay type: biochemical
Conditions: inhibition at concentration 10 μM; read-out: Inhibitory effect on Target SRPK1
Method: as §1, §2, §3, §4

Chain of SRPK1 (Q96SB4 whole entry, species assumed): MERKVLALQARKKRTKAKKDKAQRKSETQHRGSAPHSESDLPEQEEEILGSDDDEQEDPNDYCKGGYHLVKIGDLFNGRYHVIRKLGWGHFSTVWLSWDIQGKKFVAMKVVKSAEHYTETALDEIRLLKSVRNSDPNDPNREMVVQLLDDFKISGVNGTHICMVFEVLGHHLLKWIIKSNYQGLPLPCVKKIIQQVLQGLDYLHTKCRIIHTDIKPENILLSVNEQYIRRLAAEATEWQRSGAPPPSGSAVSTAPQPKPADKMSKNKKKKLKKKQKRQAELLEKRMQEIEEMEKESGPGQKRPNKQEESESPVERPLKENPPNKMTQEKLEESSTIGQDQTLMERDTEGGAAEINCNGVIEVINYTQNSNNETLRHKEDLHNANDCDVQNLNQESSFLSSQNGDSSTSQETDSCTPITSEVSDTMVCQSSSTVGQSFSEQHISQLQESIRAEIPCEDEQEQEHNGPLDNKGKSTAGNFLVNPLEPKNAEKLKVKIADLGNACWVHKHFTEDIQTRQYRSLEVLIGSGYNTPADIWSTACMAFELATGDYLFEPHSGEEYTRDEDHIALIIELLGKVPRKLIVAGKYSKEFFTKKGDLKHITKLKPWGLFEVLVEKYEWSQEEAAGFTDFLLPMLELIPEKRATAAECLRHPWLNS

Compound | inhibition at 10 µM [%]
CN(C)CCNC(=O)c1cccc(-c2cncc(Nc3ccc(C#N)c(Cl)c3)n2)c1 [Comp. 22, 3-[6-(3-Chloro-4-cyano-phenylamino)-pyrazin-2-yl]-N-(2-dimethylamino-ethyl)-benzamide] | > 75
CC(=O)Nc1ccc(-c2cncc(Nc3ccccc3)n2)cc1 [Comp. 401] | > 50
